Source: publication PMC10018336 (Nucleic Acids Research, 2023)
Changes are numbered by the printed parent chain.

What was measured:
Assay in all cases: microscale thermophoresis, RED-NHS labelled protein
Assay type in all cases: binding
Sso2081 (Crn1) [1] = target: T1, Sso2081 (Crn1) (Saccharolobus solfataricus, UniProt Q7LYJ6, E17A)
T1 construct: full length aa 1-178; recombinant in E. coli Rosetta (DE3); N-terminal His6 tag cut with PreScission protease; homodimer
T1 sequence (Q7LYJ6 1-178 E17A): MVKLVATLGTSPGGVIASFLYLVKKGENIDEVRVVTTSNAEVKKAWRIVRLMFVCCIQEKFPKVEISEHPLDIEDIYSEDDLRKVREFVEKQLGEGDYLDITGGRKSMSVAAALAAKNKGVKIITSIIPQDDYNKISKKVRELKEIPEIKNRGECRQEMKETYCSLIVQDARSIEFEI

Sso2081 (Crn1) [2] = target: T2, Sso2081 (Crn1) (Saccharolobus solfataricus, UniProt Q7LYJ6, S11A)
T2 construct: full length aa 1-178; recombinant in E. coli Rosetta (DE3); N-terminal His6 tag cut with PreScission protease; homodimer
T2 sequence (Q7LYJ6 1-178 S11A): T1 sequence (Q7LYJ6 1-178 E17A) with S11A, A17E

Sso2081 (Crn1) [3] = target: T3, Sso2081 (Crn1) (Saccharolobus solfataricus, UniProt Q7LYJ6, K106A)
T3 construct: full length aa 1-178; recombinant in E. coli Rosetta (DE3); N-terminal His6 tag cut with PreScission protease; homodimer
T3 sequence (Q7LYJ6 1-178 K106A): T1 sequence (Q7LYJ6 1-178 E17A) with A17E, K106A

Sso2081 (Crn1) [4] = target: T4, Sso2081 (Crn1) (Saccharolobus solfataricus, UniProt Q7LYJ6, D75A)
T4 construct: full length aa 1-178; recombinant in E. coli Rosetta (DE3); N-terminal His6 tag cut with PreScission protease; homodimer
T4 sequence (Q7LYJ6 1-178 D75A): T1 sequence (Q7LYJ6 1-178 E17A) with A17E, D75A

Sso2081 (Crn1) [5] = target: T5, Sso2081 (Crn1) (Saccharolobus solfataricus, UniProt Q7LYJ6, T10A)
T5 construct: full length aa 1-178; recombinant in E. coli Rosetta (DE3); N-terminal His6 tag cut with PreScission protease; homodimer
T5 sequence (Q7LYJ6 1-178 T10A): T1 sequence (Q7LYJ6 1-178 E17A) with T10A, A17E

Nc1ncnc2c1ncn2[C@@H]1O[C@@H]2COP(=O)(O)O[C@H]3[C@@H](O)[C@H](n4cnc5c(N)ncnc54)O[C@@H]3COP(=O)(O)O[C@H]3[C@@H](O)[C@H](n4cnc5c(N)ncnc54)O[C@@H]3COP(=O)(O)O[C@H]3[C@@H](O)[C@H](n4cnc5c(N)ncnc54)O[C@@H]3COP(=O)(O)O[C@H]2[C@H]1O [cA4]
Kd (Sso2081 (Crn1) [1]): 17 ± 1.2 nM
Kd (Sso2081 (Crn1) [2]): 43.2 ± 25.5 nM
Kd (Sso2081 (Crn1) [3]): 22.8 ± 10.1 nM
Kd (Sso2081 (Crn1) [4]): 75.5 ± 34.1 nM
Kd (Sso2081 (Crn1) [5]): 17.3 ± 9.2 nM
